From PubChem BioAssay AID256 (DTP/NCI, 2004)
Where “and” joins values, the source holds several entries; their conditions need not be identical. Equal entries are not always repeated. Toxic doses and inconclusive results are not listed. How the source made its calls: active means survival T/C of 150% or more; inactive means T/C below 125% in these data.

System: CD2F1 mice, L1210 leukemia ip, survival T/C
Assay: NCI In Vivo Anticancer Drug Screen. Data for tumor model L1210 Leukemia (intraperitoneal) in CD2F1 (CDF1) mice
Conditions: higher = longer survival
Summary of the method: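 Tumor-bearing mice (transplanted tumor) were split into treated and vehicle control groups, and the measured endpoint of each treated group was divided by that of its vehicle controls.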

[1] = endpoint: mean survival time, dose: 50.0 mg/kg/injection, schedule: Q01DX009 (ip), vehicle: saline with Tween-80
[2] = endpoint: mean survival time, dose: 100.0 mg/kg/injection, schedule: Q01DX009 (ip), vehicle: saline with Tween-80
[3] = endpoint: mean survival time, dose: 100.0 mg/kg/injection, schedule: Q04DX003 (ip), vehicle: saline with Tween-80
[4] = endpoint: mean survival time, dose: 200.0 mg/kg/injection, schedule: Q01DX009 (ip), vehicle: saline with Tween-80
[5] = endpoint: mean survival time, dose: 100.0 mg/kg/injection, schedule: Q04DX003 (ip), vehicle: saline
[6] = endpoint: mean survival time, dose: 200.0 mg/kg/injection, schedule: Q04DX003 (ip), vehicle: saline

Measured: T/C

Cc1cccc[n+]1CC(=O)c1ccc(-c2ccc(C(=O)C[n+]3ccccc3C)cc2)cc1
inactive: endpoint: mean survival time, dose: 0.15 mg/kg/injection, schedule: Q04DX003 (ip), vehicle: Klucel (hydroxypropylcellulose) (HPC) 94 % of control | endpoint: mean survival time, dose: 0.3 mg/kg/injection, schedule: Q04DX003 (ip), vehicle: Klucel (hydroxypropylcellulose) (HPC) 95 % of control | endpoint: mean survival time, dose: 0.6 mg/kg/injection, schedule: Q04DX003 (ip), vehicle: Klucel (hydroxypropylcellulose) (HPC) 97 % of control

Cc1nc(Cl)c(C)c(C(=O)O)n1
inactive: endpoint: mean survival time, dose: 12.5 mg/kg/injection, schedule: Q01DX009 (ip), vehicle: other 98 % of control | endpoint: mean survival time, dose: 25.0 mg/kg/injection, schedule: Q01DX009 (ip), vehicle: other 102 % of control | endpoint: mean survival time, dose: 50.0 mg/kg/injection, schedule: Q01DX009 (ip), vehicle: other 104 % of control | endpoint: mean survival time, dose: 100.0 mg/kg/injection, schedule: Q01DX009 (ip), vehicle: other 96 % of control

O=C/C=C/c1ccc([N+](=O)[O-])cc1
inactive: endpoint: mean survival time, dose: 100.0 mg/kg/injection, schedule: Q04DX003 (ip), vehicle: Klucel (hydroxypropylcellulose) (HPC) 90 % of control | endpoint: mean survival time, dose: 200.0 mg/kg/injection, schedule: Q04DX003 (ip), vehicle: Klucel (hydroxypropylcellulose) (HPC) 90 % of control

CC1=C(/C=C/C(C)=C/C=C/C(C)=C/C=O)C(C)(C)CCC1
inactive: endpoint: median survival time, dose: 6.25 mg/kg/injection, schedule: Q01DX005 (ip), vehicle: saline with Tween-80 105 % of control | endpoint: median survival time, dose: 12.5 mg/kg/injection, schedule: Q01DX005 (ip), vehicle: saline with Tween-80 100 % of control | endpoint: median survival time, dose: 25.0 mg/kg/injection, schedule: Q01DX005 (ip), vehicle: saline with Tween-80 97 % of control and 103 % of control | endpoint: median survival time, dose: 50.0 mg/kg/injection, schedule: Q01DX005 (ip), vehicle: saline with Tween-80 100 % of control and 101 % of control | endpoint: median survival time, dose: 100.0 mg/kg/injection, schedule: Q01DX005 (ip), vehicle: saline with Tween-80 104 % of control

C=CC1CN2CCC1CC2C(O)c1ccnc2ccccc12 (stereo unspecified) (tested in a mixture with another compound)
inactive: endpoint: mean survival time, dose: 25.0 mg/kg/injection, schedule: Q04DX003 (ip), vehicle: saline with Tween-80 100 % of control | endpoint: mean survival time, dose: 50.0 mg/kg/injection, schedule: Q01DX001 (ip), vehicle: saline with Tween-80 100 % of control | [1] 96 % of control | endpoint: mean survival time, dose: 50.0 mg/kg/injection, schedule: Q04DX003 (ip), vehicle: saline with Tween-80 98 % of control | endpoint: mean survival time, dose: 100.0 mg/kg/injection, schedule: Q01DX001 (ip), vehicle: saline with Tween-80 96 % of control and 92 % of control | [2] 98 % of control | [3] 93 % of control and 100 % of control | endpoint: mean survival time, dose: 200.0 mg/kg/injection, schedule: Q01DX001 (ip), vehicle: saline with Tween-80 104 % of control and 92 % of control | [4] 90 % of control

NP(N)(=O)c1ccccc1
inactive: [5] 94 % of control | [6] 98 % of control | endpoint: mean survival time, dose: 400.0 mg/kg/injection, schedule: Q04DX003 (ip), vehicle: saline 94 % of control

CCN(CC)c1nc(N(CC)CC)nc(N(CC)CC)n1
inactive: endpoint: mean survival time, dose: 25.0 mg/kg/injection, schedule: Q01DX009 (ip), vehicle: saline with Tween-80 93 % of control | [1] 93 % of control | [2] 95 % of control | [4] 93 % of control

Cc1ccnc(=S)[nH]1.[Pd]
inactive: endpoint: mean survival time, dose: 3.12 mg/kg/injection, schedule: Q04DX003 (ip), vehicle: saline 98 % of control | endpoint: mean survival time, dose: 6.25 mg/kg/injection, schedule: Q04DX003 (ip), vehicle: saline 102 % of control | endpoint: mean survival time, dose: 12.5 mg/kg/injection, schedule: Q04DX003 (ip), vehicle: saline 98 % of control | endpoint: mean survival time, dose: 25.0 mg/kg/injection, schedule: Q04DX003 (ip), vehicle: saline 98 % of control | endpoint: mean survival time, dose: 50.0 mg/kg/injection, schedule: Q04DX003 (ip), vehicle: saline 102 % of control | [5] 102 % of control | [6] 104 % of control

COc1ccc(NC(=O)Oc2cc(=O)oc3ccccc23)c(Cl)c1
inactive: endpoint: mean survival time, dose: 50.0 mg/kg/injection, schedule: Q01DX009 (ip), vehicle: Klucel (hydroxypropylcellulose) (HPC) 107 % of control | endpoint: mean survival time, dose: 100.0 mg/kg/injection, schedule: Q01DX009 (ip), vehicle: Klucel (hydroxypropylcellulose) (HPC) 96 % of control | endpoint: mean survival time, dose: 200.0 mg/kg/injection, schedule: Q01DX009 (ip), vehicle: Klucel (hydroxypropylcellulose) (HPC) 100 % of control

O=C(CC(=O)C(F)(F)C(F)(F)C(F)(F)F)C(F)(F)F.O=C(CC(=O)C(F)(F)C(F)(F)C(F)(F)F)C(F)(F)F.O=C(CC(=O)C(F)(F)C(F)(F)C(F)(F)F)C(F)(F)F.O=C(CC(=O)C(F)(F)C(F)(F)C(F)(F)F)C(F)(F)F.[Yb]
inactive: endpoint: median survival time, dose: 50.0 mg/kg/injection, schedule: Q04DX002 (ip), vehicle: saline with Tween-80 100 % of control | endpoint: median survival time, dose: 100.0 mg/kg/injection, schedule: Q04DX002 (ip), vehicle: saline with Tween-80 100 % of control | endpoint: median survival time, dose: 200.0 mg/kg/injection, schedule: Q04DX002 (ip), vehicle: saline with Tween-80 100 % of control | endpoint: median survival time, dose: 400.0 mg/kg/injection, schedule: Q04DX002 (ip), vehicle: saline with Tween-80 100 % of control

Cn1ncc2c(NCc3ccccc3)ncnc21
inactive: endpoint: mean survival time, dose: 18.0 mg/kg/injection, schedule: Q01DX009 (ip), vehicle: saline with Tween-80 114 % of control | endpoint: mean survival time, dose: 37.5 mg/kg/injection, schedule: Q01DX009 (ip), vehicle: saline with Tween-80 115 % of control

Nc1ncnc2c1nc(N1CCCC1)n2C1OC(CO)C(O)C1O (stereo unspecified)
inactive: endpoint: mean survival time, dose: 12.5 mg/kg/injection, schedule: Q01DX005 (ip), vehicle: distilled water + Tween-80 104 % of control and 93 % of control | endpoint: mean survival time, dose: 25.0 mg/kg/injection, schedule: Q01DX005 (ip), vehicle: distilled water + Tween-80 104 % of control and 98 % of control | endpoint: mean survival time, dose: 50.0 mg/kg/injection, schedule: Q01DX005 (ip), vehicle: distilled water + Tween-80 102 % of control and 100 % of control | endpoint: mean survival time, dose: 100.0 mg/kg/injection, schedule: Q01DX005 (ip), vehicle: distilled water + Tween-80 100 % of control and 90 % of control | endpoint: mean survival time, dose: 200.0 mg/kg/injection, schedule: Q01DX005 (ip), vehicle: distilled water + Tween-80 105 % of control and 97 % of control

CC1=CCC(=O)O1
inactive: endpoint: mean survival time, dose: 100.0 mg/kg/injection, schedule: Q04DX002 (ip), vehicle: saline with Tween-80 102 % of control | endpoint: mean survival time, dose: 200.0 mg/kg/injection, schedule: Q04DX002 (ip), vehicle: saline with Tween-80 98 % of control | endpoint: mean survival time, dose: 400.0 mg/kg/injection, schedule: Q04DX002 (ip), vehicle: saline with Tween-80 102 % of control

CCOC(=O)CC(COC)C(Br)(C(=O)OCC)C(=O)OCC (stereo unspecified)
inactive: endpoint: mean survival time, dose: 1.56 mg/kg/injection, schedule: Q01DX009 (ip), vehicle: Klucel (hydroxypropylcellulose) (HPC) 104 % of control | endpoint: mean survival time, dose: 3.13 mg/kg/injection, schedule: Q01DX009 (ip), vehicle: Klucel (hydroxypropylcellulose) (HPC) 107 % of control | endpoint: mean survival time, dose: 6.25 mg/kg/injection, schedule: Q01DX009 (ip), vehicle: Klucel (hydroxypropylcellulose) (HPC) 102 % of control | endpoint: mean survival time, dose: 12.5 mg/kg/injection, schedule: Q01DX009 (ip), vehicle: Klucel (hydroxypropylcellulose) (HPC) 104 % of control | endpoint: mean survival time, dose: 25.0 mg/kg/injection, schedule: Q01DX009 (ip), vehicle: Klucel (hydroxypropylcellulose) (HPC) 104 % of control

CC(=O)Nc1nc(Br)c2ccccc2c1-c1ccc(N(CCOS(C)(=O)=O)CCOS(C)(=O)=O)cc1
inactive: endpoint: mean survival time, dose: 12.5 mg/kg/injection, schedule: Q04DX003 (ip), vehicle: DMSO 105 % of control | endpoint: mean survival time, dose: 25.0 mg/kg/injection, schedule: Q04DX003 (ip), vehicle: DMSO 105 % of control | endpoint: mean survival time, dose: 50.0 mg/kg/injection, schedule: Q04DX003 (ip), vehicle: DMSO 110 % of control | endpoint: mean survival time, dose: 100.0 mg/kg/injection, schedule: Q04DX003 (ip), vehicle: DMSO 121 % of control

CC(=O)Oc1cccc(C(C)=O)c1
inactive: [3] 102 % of control | endpoint: mean survival time, dose: 200.0 mg/kg/injection, schedule: Q04DX003 (ip), vehicle: saline with Tween-80 100 % of control | endpoint: mean survival time, dose: 400.0 mg/kg/injection, schedule: Q04DX003 (ip), vehicle: saline with Tween-80 104 % of control
